According to ChEMBL document CHEMBL1944604, “Aminopurine based JNK inhibitors for the prevention of ischemia reperfusion injury” (Bioorg Med Chem Lett, 2012):
pIC50: −log10 of the molar value. ≈ marks a conversion by molar mass, not a printed value.

What was measured:
[1] = Metabolic stability in rat liver S9 fraction assessed as compound remaining after 60 mins; assay type: ADME, subcellular; conditions: read-out: Stability
[2] = target: Mitogen-activated protein kinase 14 (Homo sapiens, UniProt Q16539); experiment: Inhibition of p38alpha using MBP and [gamma33P]ATP as substrate after 60 mins by scintillation counting
Mitogen-activated protein kinase 14, sequence (Q16539 whole entry): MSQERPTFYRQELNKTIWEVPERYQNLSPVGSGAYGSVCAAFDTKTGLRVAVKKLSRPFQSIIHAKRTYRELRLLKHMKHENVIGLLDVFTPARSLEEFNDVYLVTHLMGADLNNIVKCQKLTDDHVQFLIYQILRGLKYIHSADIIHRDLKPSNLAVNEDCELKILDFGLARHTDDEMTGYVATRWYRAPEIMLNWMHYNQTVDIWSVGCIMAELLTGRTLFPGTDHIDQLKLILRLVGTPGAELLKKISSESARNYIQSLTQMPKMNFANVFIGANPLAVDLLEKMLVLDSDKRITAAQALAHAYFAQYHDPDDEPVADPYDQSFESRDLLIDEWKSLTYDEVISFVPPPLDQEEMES

[3] = target: Mitogen-activated protein kinase 8 (Homo sapiens, UniProt P45983); experiment: Inhibition of full length Hexa-His-tagged JNK1 using GST-tagged cJun and [gamma33P]ATP as substrate after 60 mins by scintillation counting
Mitogen-activated protein kinase 8, sequence (P45983 whole entry): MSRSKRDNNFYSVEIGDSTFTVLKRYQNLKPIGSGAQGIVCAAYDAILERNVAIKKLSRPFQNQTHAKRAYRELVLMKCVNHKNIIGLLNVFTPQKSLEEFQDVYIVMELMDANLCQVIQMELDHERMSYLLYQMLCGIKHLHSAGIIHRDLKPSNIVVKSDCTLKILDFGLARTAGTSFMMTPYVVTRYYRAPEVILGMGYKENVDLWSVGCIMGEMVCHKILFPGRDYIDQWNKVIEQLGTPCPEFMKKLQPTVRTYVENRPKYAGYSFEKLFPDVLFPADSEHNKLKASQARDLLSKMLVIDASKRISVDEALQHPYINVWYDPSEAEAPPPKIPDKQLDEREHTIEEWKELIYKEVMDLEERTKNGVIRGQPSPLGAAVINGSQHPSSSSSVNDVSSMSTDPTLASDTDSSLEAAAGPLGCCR

[4] = target: Mitogen-activated protein kinase 9 (Homo sapiens, UniProt P45984); experiment: Inhibition of full length Hexa-His-tagged JNK2 using GST-tagged cJun and [gamma33P]ATP as substrate after 60 mins by scintillation counting
Mitogen-activated protein kinase 9, sequence (P45984 whole entry): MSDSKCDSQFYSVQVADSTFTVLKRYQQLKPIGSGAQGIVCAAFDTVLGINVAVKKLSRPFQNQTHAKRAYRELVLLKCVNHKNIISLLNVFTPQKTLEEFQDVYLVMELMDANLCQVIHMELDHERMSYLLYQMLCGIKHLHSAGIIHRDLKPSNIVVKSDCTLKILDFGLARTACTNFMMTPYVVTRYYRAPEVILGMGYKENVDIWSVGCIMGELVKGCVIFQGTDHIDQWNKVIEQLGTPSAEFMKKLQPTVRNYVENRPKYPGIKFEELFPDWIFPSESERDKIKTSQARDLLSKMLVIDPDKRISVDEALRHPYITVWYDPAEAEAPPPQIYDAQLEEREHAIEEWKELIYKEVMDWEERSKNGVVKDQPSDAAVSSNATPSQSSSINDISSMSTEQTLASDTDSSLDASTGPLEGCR

[5] = Metabolic stability in human liver S9 fraction assessed as compound remaining after 60 mins; assay type: ADME, subcellular; conditions: read-out: Stability
[6] = target: Mitogen-activated protein kinase 10 (Homo sapiens, UniProt P53779); experiment: Inhibition of full length Hexa-His-tagged JNK3 using GST-tagged cJun and [gamma33P]ATP as substrate after 60 mins by scintillation counting
Mitogen-activated protein kinase 10, sequence (P53779 whole entry): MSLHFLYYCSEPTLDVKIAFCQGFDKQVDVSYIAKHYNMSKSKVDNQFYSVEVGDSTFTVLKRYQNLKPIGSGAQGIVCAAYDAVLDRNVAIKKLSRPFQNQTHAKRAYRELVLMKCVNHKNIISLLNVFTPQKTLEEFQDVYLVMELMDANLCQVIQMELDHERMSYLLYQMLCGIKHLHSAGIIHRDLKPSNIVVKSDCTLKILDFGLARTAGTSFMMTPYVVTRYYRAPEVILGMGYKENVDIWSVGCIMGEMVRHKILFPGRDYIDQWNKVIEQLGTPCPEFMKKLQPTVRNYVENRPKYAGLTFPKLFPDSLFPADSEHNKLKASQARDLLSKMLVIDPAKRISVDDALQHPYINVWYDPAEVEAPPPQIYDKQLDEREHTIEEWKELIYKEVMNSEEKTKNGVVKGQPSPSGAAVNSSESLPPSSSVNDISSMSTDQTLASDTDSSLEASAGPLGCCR

[7] = Aqueous solubility of the compound at pH 7.4; assay type: physicochemical
[8] = Half life in human microsomes; assay type: ADME, Microsome
[9] = Half life in rat microsomes; assay type: ADME, Microsome
[10] = Thermodynamic solubility of the compound at pH 5; assay type: physicochemical; conditions: buffer, read-out: Therm_solubility
[11] = target: c-Jun N-terminal kinase, JNK (Homo sapiens, UniProt P45983+P53779+P45984); experiment: Inhibition of JNK-mediated cJun phosphorylation in anisomysin-stimulated human Jurkat T cells pretreated for 30 mins before anisomysin stimulation measured after 10 mins by DELFIA assay; assay type: cell-based
[12] = Volume of distribution at steady state in rat at 2 to 10 mg/kg, iv; assay type: ADME, organism-based; design: dose 2-10 mg/kg, route intravenous; conditions: in vivo, read-out: Vdss
[13] = Clearance in rat at 2 to 10 mg/kg, iv; assay type: ADME, organism-based; design: dose 2-10 mg/kg, route intravenous; conditions: in vivo
[14] = Aqueous solubility of the compound at pH 5; assay type: physicochemical

Row | SMILES | remaining at 1 h [1] [%] | pIC50 [2] | pIC50 [3] | pIC50 [4] | remaining at 1 h [5] [%] | pIC50 [6] | solubility [7] [µg/mL] | half-life [8] [h] | half-life [9] [h] | solubility thermodynamic [10] [µg/mL] | IC50 [11] [µM] | Vd [12] [L/kg] | clearance [13] [mL/min/kg] | solubility [14] [µg/mL]
1 | COc1ccc(Nc2ncc3nc(Nc4ccccc4)n(C4CCCC4)c3n2)cc1 | > 70 | < 4.52 | < 5.00 | 6.10 | > 70 | < 6.00 | – | – | – | – | – | – | – | –
2 | COc1ccc(Nc2ncc3nc(Nc4ccccc4F)n(C4CCCC4)c3n2)cc1 | 35 | < 5.52 | 5.96 | 6.92 | 86 | – | 447 (≈ 1070 µM) | 1.03 | 1.68 | – | – | – | – | –
3 | COc1ccc(Nc2ncc3nc(Nc4ccccc4Cl)n(C4CCCC4)c3n2)cc1 | > 70 | < 4.52 | < 5.00 | < 5.00 | > 70 | < 5.00 | – | – | – | – | – | – | – | –
4 | COc1ccc(Nc2ncc3nc(Nc4ccc(F)cc4F)n(C4CCCC4)c3n2)cc1 | > 70 | 5.89 | 5.60 | 6.89 | > 70 | 6.85 | – | – | – | – | – | – | – | –
5 | COc1ccc(Nc2ncc3nc(Nc4c(F)cccc4F)n(C4CCCC4)c3n2)cc1 | > 70 | 5.46 | 5.96 | 7.34 | > 70 | 6.89 | – | – | – | – | – | – | – | –
6 | CNc1ncc2nc(Nc3ccccc3F)n(C3CCCC3)c2n1 | – | < 4.52 | 5.20 | 6.44 | – | 6.17 | – | – | – | – | – | – | – | –
7 | CCNc1ncc2nc(Nc3ccccc3F)n(C3CCCC3)c2n1 | – | 5.59 | 5.74 | 6.85 | – | 6.59 | – | – | – | – | – | – | – | –
8 | CC(C)Nc1ncc2nc(Nc3ccccc3F)n(C3CCCC3)c2n1 | – | 5.92 | 6.10 | 7.18 | – | 6.96 | – | – | – | – | – | – | – | –
9 | Fc1ccccc1Nc1nc2cnc(NC3CCCCC3)nc2n1C1CCCC1 | – | 5.82 | 6.24 | 7.34 | – | 7.30 | – | – | – | – | – | – | – | –
10 | O[C@H]1CC[C@H](Nc2ncc3nc(Nc4ccccc4F)n(C4CCCC4)c3n2)CC1 | – | 6.29 | 7.12 | 8.00 | – | 7.92 | < 2.5 | – | – | – | – | – | – | –
11 | N[C@H]1CC[C@H](Nc2ncc3nc(Nc4ccccc4F)n(C4CCCC4)c3n2)CC1 | – | 6.68 | 6.64 | 7.59 | – | 7.51 | – | – | – | 869 (≈ 2120 µM) | 0.3 | – | – | –
12 | CCn1c(Nc2ccccc2F)nc2cnc(Nc3ccc(OC)cc3)nc21 | – | 5.03 | 5.44 | 6.37 | – | 6.44 | – | – | – | – | – | – | – | –
13 | COc1ccc(Nc2ncc3nc(Nc4ccccc4F)n(C(C)C)c3n2)cc1 | – | 5.68 | 6.08 | 7.08 | – | 7.02 | – | – | – | – | – | – | – | –
14 | COc1ccc(Nc2ncc3nc(Nc4ccccc4F)n(C4CCCCC4)c3n2)cc1 | – | < 5.52 | 5.54 | 6.85 | – | 6.44 | – | – | – | – | – | – | – | –
15 | COc1ccc(Nc2ncc3nc(Nc4ccccc4F)n(-c4ccccc4)c3n2)cc1 | – | < 5.52 | < 5.00 | 6.00 | – | < 6.52 | – | – | – | – | – | – | – | –
16 | COc1ccc(Nc2ncc3nc(Nc4ccccc4F)n([C@H]4CC[C@H](N)CC4)c3n2)cc1 | – | 6.68 | 5.59 | 6.62 | – | 6.62 | – | – | – | – | – | – | – | –
17 | COc1ccc(Nc2ncc3nc(Nc4ccccc4F)n([C@H]4CC[C@@H](O)CC4)c3n2)cc1 | – | 5.80 | 6.80 | 7.85 | – | 7.77 | – | – | – | – | – | – | – | –
18 | COc1ccc(Nc2ncc3nc(Nc4ccccc4F)n(C4CCOCC4)c3n2)cc1 | – | 5.55 | 6.31 | 7.28 | – | 7.20 | – | – | – | – | – | – | – | –
19 | COc1ccc(Nc2ncc3nc(Nc4ccccc4F)n([C@H]4CC[C@@H](C(N)=O)CC4)c3n2)cc1 | – | 6.62 | 6.74 | 7.66 | – | 7.62 | – | – | – | – | – | – | – | –
20 | N[C@H]1CC[C@H](Nc2ncc3nc(Nc4c(F)cccc4F)n(C4CCCC4)c3n2)CC1 | – | 6.31 | 7.04 | 8.05 | – | 7.89 | – | – | – | 852 (≈ 1990 µM) | 0.21 | 66 | 118 | –
21 | N[C@H]1CC[C@H](Nc2ncc3nc(Nc4c(F)cc(F)cc4F)n(C4CCCC4)c3n2)CC1 | – | 6.31 | 6.82 | 7.96 | – | 7.80 | – | – | – | > 1000 | 0.24 | 90 | 88 | –
22 | Cl.N[C@H]1CC[C@H](Nc2ncc3nc(Nc4ccc(F)cc4F)n(C4CCCC4)c3n2)CC1 | – | – | – | – | – | – | – | – | – | – | – | – | – | 5.7
